Consider two molecules from US20230301981A1, “TLR7/8 ANTAGONISTS AND USES THEREOF” (Merck Patent GmbH, priority 2020, published 2023).

By IC50 is commonly meant the concentration at which inhibition is half-maximal.

In the test the target is T1, TLR9 (Mus musculus, UniProt Q9EQU3).
T1 construct: from tissue; host or cells: primary splenocytes from C57BL-6/N mouse spleen
T1 sequence (Q9EQU3 26-1032): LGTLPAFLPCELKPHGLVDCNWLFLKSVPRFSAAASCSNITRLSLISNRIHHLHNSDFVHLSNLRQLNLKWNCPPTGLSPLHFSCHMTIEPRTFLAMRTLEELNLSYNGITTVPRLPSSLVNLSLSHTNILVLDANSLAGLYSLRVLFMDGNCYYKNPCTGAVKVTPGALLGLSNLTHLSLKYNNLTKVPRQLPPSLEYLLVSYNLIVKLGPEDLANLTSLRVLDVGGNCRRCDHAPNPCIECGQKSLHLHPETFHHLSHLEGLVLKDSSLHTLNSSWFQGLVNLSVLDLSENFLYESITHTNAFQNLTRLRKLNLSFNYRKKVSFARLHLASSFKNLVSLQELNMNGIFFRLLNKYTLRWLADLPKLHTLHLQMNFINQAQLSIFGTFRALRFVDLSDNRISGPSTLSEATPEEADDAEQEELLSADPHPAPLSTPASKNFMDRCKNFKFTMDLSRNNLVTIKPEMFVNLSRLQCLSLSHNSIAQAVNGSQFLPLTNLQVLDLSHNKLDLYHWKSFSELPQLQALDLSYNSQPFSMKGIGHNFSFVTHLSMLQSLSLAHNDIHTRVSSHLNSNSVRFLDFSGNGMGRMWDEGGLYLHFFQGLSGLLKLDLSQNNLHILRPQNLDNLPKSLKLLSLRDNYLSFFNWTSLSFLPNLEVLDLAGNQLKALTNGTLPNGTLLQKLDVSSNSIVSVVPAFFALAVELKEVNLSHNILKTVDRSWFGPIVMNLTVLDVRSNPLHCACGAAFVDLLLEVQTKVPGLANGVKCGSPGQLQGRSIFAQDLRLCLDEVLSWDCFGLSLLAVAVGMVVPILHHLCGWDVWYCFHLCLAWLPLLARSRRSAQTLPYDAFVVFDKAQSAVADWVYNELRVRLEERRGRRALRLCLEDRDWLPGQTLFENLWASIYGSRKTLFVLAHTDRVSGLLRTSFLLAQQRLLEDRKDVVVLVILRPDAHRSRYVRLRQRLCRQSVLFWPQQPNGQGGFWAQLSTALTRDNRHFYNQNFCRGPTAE
The experiment in a line: Mouse spleenocytes cell assay with CpG stimulation (IL6/TNFa ELISA). The following applies: CpG 5 µM. It is filed as cell-based. How it is done: Mouse spleen from healthy, female C57BL-6/N mice (n=2) were taken out in 50 mL tubes with B-Cell medium and the experiment started directly. The spleen was grinded through a cell strainer by using the punch of a syringe into a 50 mL Falcon tube. Cell strainer and punch were flushed with appropriate amount of washing buffer to avoid cellloss. Then the spleenocytes were centrifuged for 10 min at 552 xg (1600 rpm), 4° C. The erythrocytes within the cell pellet were lysed by resuspending pellet in 1 ml ACK-lysing buffer (4° C.) and incubate for 1 minute at RT. Lysis was stopped by filling up to 50 ml with washing buffer and centrifuged for 10 min at 552 xg (1600 rpm), 4° C. Cells were washed in B-cell Media (IMDM + 25 mM HEPES + 10%FCS + pen/strep + NEAA 10 nM + Sodium Pyrovat 100 nM, β-Mercaptoethanol 50 nM), counted and seeded in a density of 148500 cells per well in a 96 well MTP (135µl of 1,1×106c/ml). The cells were pre-treated with antimalarials (15 µL, in different concentrations according to dose-response curve ranging from 100 pM-50 µM)) for 30 min, at 37° C., 5% CO2, followed by TLR⅞ stimulation with R848 (15 µl, final concentration of 1 µM) or a TLR9 stimulation with CpG (15 µl, final concentration of 5 µM) and incubated at 37° C., 5% CO2 for 18 - 24 hours.
Supernatants were collected and transferred into a 96 well round bottom MTP and stored at -20° C. until ELISA formouse IL6 and mouse TNFa were performed. Plates were read directly after assay on an Envision Multiplate reader. Results were analyzed with GraphPadPrism V8.0. Plot the calculated amount of produced IL6 or TNFa in pg/ml on y-axis and the concentration of each MSC concentration at half logarhythmic scaling on the x-axis to achieve a dose-response curve. Determine IC50 values using Graph Pad Prism analysis software (Transform Y values using “X=Log(X) and log inhibitor vs. response; Variable slope (four parameters).

The mark [1] stands for this setting: IL6 readout, read-out: IC50 TLR9 (IL6 readout) mouse spleenocytes (n=2).
Setting [2] is: TNF readout, read-out: IC50 TLR9 (TNF readout) mouse spleenocytes (n=2).

Values joined by “and” are separate entries in the source; they are usually repeats but may differ in a detail not shown here. Identical values can stand only once. Like-named read-outs stand apart in the source and are kept apart here.

Consider `COc1ccc2nc3cc(Cl)ccc3c(Nc3cc(CN4CCCC4)c(O)c(CN4CCCC4)c3)c2n1` [Compound 1, Pyronaridine], for which the IC50 reads like this: under setting [1], 0.014 µM and 0.035 µM; under setting [2], 0.021 µM and 0.14 µM.

For `CCN(CCO)CCCC(C)Nc1ccnc2cc(Cl)ccc12` (centres unmarked) [HYDROXY-CHLOROQUINE HCQ, hydroxychloroquine], the IC50 under setting [1] was 15.4 µM and 1.7 µM; the 50% inhibitory concentration (IC50) under setting [2] was found to be 11.5 µM. Further, the “IC50 TLR9 (TNF readout) mouse spleenocytes (n=2)” value (TNF readout) is listed as “no suppr”.
